Data from patent US12077503B2, “Substituted cyclic amides and their use as herbicides” (FMC CORPORATION, priority 2015, dated 2024).

Tests used:
Format in all cases: in vivo
[1] = tested on: pigweed (Amaranthus retroflexus); test: Test C preemergence; settings: for Plant response rating (scale of 0 to 100), Pigweed: 31 g ai/ha, 0 is no effect, 100 is complete control; for Plant response rating, Pigweed: scale 0 to 100, 0 no effect, 100 complete control
Procedure, shortened: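 Preemergence application to seeds in loam/sand soil, or foliar (postemergence) application to plants 2–18 cm tall in peat moss/vermiculite medium; surfactant-containing non-phytotoxic solvent vehicle; greenhouse. Visual injury vs controls at 13–15 d; 0 = no effect, 100 = complete control.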

Kochia (Kochia scoparia) [2] = test: Test A postemergence
Procedure, shortened: (§1)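 Preemergence directed soil spray on seeded pots, or postemergence application to plants 2–10 cm, one- to two-leaf. Solvent mixture non-phytotoxic, with surfactant. Scored ~10 d later, visually, 0–100 vs untreated.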

[3] = tested on: blackgrass (Alopecurus myosuroides); test: Test A postemergence
Procedure, shortened: as §1

[4] = tested on: wheat (Triticum aestivum); test: Test A postemergence
Procedure, shortened: as §1

[5] = tested on: barnyardgrass (Echinochloa crus-galli); test: Test A postemergence
Procedure, shortened: as §1

[6] = tested on: Galium (catchweed bedstraw, Galium aparine); test: Test A postemergence
Procedure, shortened: as §1

[7] = tested on: ryegrass, Italian (Italian ryegrass, Lolium multiflorum); test: Test A postemergence
Procedure, shortened: as §1

[8] = tested on: ragweed (common ragweed, Ambrosia elatior); test: Test A postemergence
Procedure, shortened: as §1

corn (Zea mays) = test: Test A postemergence
Procedure, shortened: as §1

[9] = tested on: pigweed (Amaranthus retroflexus); test: Test A postemergence
Procedure, shortened: as §1

[10] = tested on: giant foxtail (Setaria faberii); test: Test A postemergence
Procedure, shortened: as §1

rice (Oryra sativa) = test: Test B flooded paddy test; settings: Flood, 0 to 100 scale where 0 is no effect and 100 is complete control, 13 to 15 d
Procedure, shortened: (§2)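 Flooding to 3 cm over soil accompanied treatment, which consisted of adding compound to the standing water around 2-leaf plants; depth was then maintained. Visual assessment versus controls followed at 13 to 15 d (scale 0–100, 0 meaning no effect).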

[11] = tested on: sedge, umbrella (small-flower umbrella sedge, Cyperus difformis); test: Test B flooded paddy test; settings: Flood, 0 to 100 scale where 0 is no effect and 100 is complete control, 13 to 15 d
Procedure, shortened: as §2

[12] = tested on: barnyardgrass (Echinochloa crus-galli); test: Test B flooded paddy test; settings: Flood, 0 to 100 scale where 0 is no effect and 100 is complete control, 13 to 15 d
Procedure, shortened: as §2

[13] = tested on: ducksalad (Heteranthera limosa); test: Test B flooded paddy test; settings: Flood, 0 to 100 scale where 0 is no effect and 100 is complete control, 13 to 15 d
Procedure, shortened: as §2

Kochia (Kochia scoparia) [14] = test: Test A preemergence
Procedure, shortened: as §1

[15] = tested on: barnyardgrass (Echinochloa crus-galli); test: Test A preemergence
Procedure, shortened: as §1

[16] = tested on: ryegrass, Italian (Italian ryegrass, Lolium multiflorum); test: Test A preemergence
Procedure, shortened: as §1

[17] = tested on: ragweed (common ragweed, Ambrosia elatior); test: Test A preemergence
Procedure, shortened: as §1

[18] = tested on: pigweed (Amaranthus retroflexus); test: Test A preemergence
[19] = tested on: giant foxtail (Setaria faberii); test: Test A preemergence
Procedure, shortened: as §1

[20] = 125 g ai/ha, postemergence, visual injury rating on 0 to 100 scale (0 no effect, 100 complete control), approx. 10 d
[21] = Postemergence, 500 g ai/ha, 0 to 100 scale where 0 is no effect and 100 is complete control
[22] = 125 g ai/ha, Preemergence, visual injury after approximately 10 d, 0 to 100 scale where 0 is no effect and 100 is complete control
[23] = Preemergence, 500 g ai/ha, visual injury approx. 10 d
[24] = 125 g ai/ha, postemergence, visual rating after approx. 10 d, 0 to 100 scale (0 no effect, 100 complete control)
[25] = 500 g ai/ha, preemergence, 0 to 100 scale, 0 = no effect, 100 = complete control
[26] = 500 g ai/ha, postemergence, visual injury, 0 to 100 scale (0 no effect, 100 complete control), approx. 10 d

O=C1NCC(c2cc(F)cc(C(F)(F)F)c2)C1C(=O)Nc1cccc(F)c1F (stereo not shown) [Compound 488]
60: Plant response rating, Kochia (Kochia (Kochia scoparia) [2]; [21]) | Blackgrass plant response rating [3, 20] | Plant response rating, Wheat [4, 21] | Plant response rating, Ryegrass, Italian [7, 21]
0: Plant response rating, Sedge, Umbrella ([11]; 250 g ai/ha)
20: Plant response rating (scale of 0 to 100), Pigweed [1] | Ragweed plant response rating [8, 20] | Plant response rating, Ragweed [8, 21]
70: Plant response rating, Pigweed ([1]; 125 g ai/ha) | Plant response rating, Blackgrass [3, 21] | Corn plant response rating (corn (Zea mays); [20]) | Plant response rating, Kochia (Kochia (Kochia scoparia) [14]; [22]) | Kochia plant response rating (0 to 100 scale, 0 is no effect, 100 is complete control) (Kochia (Kochia scoparia) [14]; [23]) | Ryegrass, Italian plant response rating (0 to 100 scale, 0 is no effect, 100 is complete control) [16, 23] | Plant response rating, Ragweed [17, 22] | Pigweed plant response rating (0 to 100 scale, 0 is no effect, 100 is complete control) [18, 23]
65: Plant response rating, Barnyardgrass ([12]; 250 g ai/ha)
50: Wheat plant response rating [4, 20] | Galium plant response rating [6, 20] | Plant response rating, Galium [6, 21] | Plant response rating, Pigweed [9, 21] | Plant response rating, Pigweed [18, 22]
30: Kochia plant response rating (Kochia (Kochia scoparia) [2]; [20]) | Ryegrass, Italian plant response rating [7, 20] | Plant response rating, Rice (rice (Oryra sativa); 250 g ai/ha) | Plant response rating, Ryegrass, Italian [16, 22]
80: Plant response rating, Corn (corn (Zea mays); [21]) | Ragweed plant response rating (0 to 100 scale, 0 is no effect, 100 is complete control) [17, 23]
90: Barnyardgrass plant response rating [5, 20] | Plant response rating, Barnyardgrass [5, 21] | Foxtail, Giant plant response rating [10, 20] | Plant response rating, Foxtail, Giant [10, 21] | Plant response rating, Ducksalad ([13]; 250 g ai/ha) | Plant response rating, Barnyardgrass [15, 22] | Barnyardgrass plant response rating (0 to 100 scale, 0 is no effect, 100 is complete control) [15, 23] | Plant response rating, Foxtail, Giant [19, 22] | Foxtail, Giant plant response rating (0 to 100 scale, 0 is no effect, 100 is complete control) [19, 23]
40: Pigweed plant response rating [9, 20]
75: Plant response rating, Pigweed ([1]; 62 g ai/ha)
85: Plant response rating, Pigweed ([1]; 250 g ai/ha)

CN1CC(c2cccc(OC(F)F)c2)C(C(=O)Nc2cccc(F)c2F)C1=O (stereo not shown) [Compound 616]
50: Plant response rating, Kochia (Kochia (Kochia scoparia) [2]; [24]) | Plant response rating, Blackgrass [3, 24] | Plant response rating, Ryegrass, Italian [7, 24]
60: Plant response rating, Blackgrass [3, 21] | Plant response rating, Wheat [4, 24] | Plant response rating, Galium [6, 24] | Plant response rating, Pigweed [9, 21]
80: Plant response rating, Pigweed ([1]; 62 g ai/ha) | Plant response rating, Pigweed ([1]; 125 g ai/ha) | Plant response rating, Pigweed ([1]; 250 g ai/ha) | Plant response rating, Ryegrass, Italian [7, 21] | Plant response rating, Corn (corn (Zea mays); [21]) | Plant response rating, Kochia (Kochia (Kochia scoparia) [14]; [25]) | Plant response rating, Ryegrass, Italian [16, 22] | Plant response rating, Ragweed [17, 22] | Plant response rating, Ragweed [17, 25] | Plant response rating, Pigweed [18, 22]
10: Plant response rating, Rice (rice (Oryra sativa); 250 g ai/ha)
0: Plant response rating, Ragweed [8, 24] | Plant response rating, Sedge, Umbrella ([11]; 250 g ai/ha)
70: Plant response rating, Kochia (Kochia (Kochia scoparia) [2]; [21]) | Plant response rating, Wheat [4, 21] | Plant response rating, Galium [6, 21] | Plant response rating, Corn (corn (Zea mays); [24]) | Plant response rating, Barnyardgrass ([12]; 250 g ai/ha) | Plant response rating, Kochia (Kochia (Kochia scoparia) [14]; [22])
75: Plant response rating (scale of 0 to 100), Pigweed [1]
100: Plant response rating, Ducksalad ([13]; 250 g ai/ha) | Plant response rating, Foxtail, Giant [19, 25]
40: Plant response rating, Pigweed [9, 24]
90: Plant response rating, Barnyardgrass [5, 24] | Plant response rating, Barnyardgrass [5, 21] | Plant response rating, Foxtail, Giant [10, 24] | Plant response rating, Foxtail, Giant [10, 21] | Plant response rating, Barnyardgrass [15, 22] | Plant response rating, Barnyardgrass [15, 25] | Plant response rating, Ryegrass, Italian [16, 25] | Plant response rating, Pigweed [18, 25] | Plant response rating, Foxtail, Giant [19, 22]
20: Plant response rating, Ragweed [8, 21]

O=C1NCC(c2ccc3c(c2)OC(F)(F)O3)C1C(=O)Nc1cccc(F)c1F (stereo not shown) [Compound 635]
70: Plant response rating (scale of 0 to 100), Pigweed [1] | Plant response rating, Pigweed ([1]; 62 g ai/ha) | Plant response rating, Blackgrass [3, 21] | Plant response rating, Corn (corn (Zea mays); [21]) | Plant response rating, Pigweed [18, 25]
50: Plant response rating, Ragweed [17, 25]
30: Plant response rating, Ryegrass, Italian [7, 26] | Plant response rating, Ryegrass, Italian [16, 25]
80: Plant response rating, Kochia (Kochia (Kochia scoparia) [2]; [26]) | Plant response rating, Barnyardgrass [5, 24] | Plant response rating, Pigweed [9, 26]
40: Plant response rating, Blackgrass [3, 24] | Plant response rating, Wheat [4, 26] | Plant response rating, Galium [6, 24] | Plant response rating, Ragweed [8, 26] | Plant response rating, Corn (corn (Zea mays); [24]) | Plant response rating, Ragweed [17, 22]
90: Plant response rating, Barnyardgrass [5, 21] | Plant response rating, Foxtail, Giant [10, 24] | Plant response rating, Foxtail, Giant [10, 26] | Plant response rating, Barnyardgrass [15, 22] | Plant response rating, Barnyardgrass [15, 25] | Plant response rating, Foxtail, Giant [19, 22] | Plant response rating, Foxtail, Giant [19, 25]
85: Plant response rating, Pigweed ([1]; 125 g ai/ha) | Plant response rating, Pigweed ([1]; 250 g ai/ha)
10: Plant response rating, Rice (rice (Oryra sativa); 500 g ai/ha)
100: Plant response rating, Ducksalad ([13]; 500 g ai/ha)
60: Plant response rating, Kochia (Kochia (Kochia scoparia) [2]; [24]) | Plant response rating, Galium [6, 26] | Plant response rating, Pigweed [9, 24] | Plant response rating, Barnyardgrass ([12]; 500 g ai/ha) | Plant response rating, Kochia (Kochia (Kochia scoparia) [14]; [22]) | Plant response rating, Kochia (Kochia (Kochia scoparia) [14]; [25]) | Plant response rating, Pigweed [18, 22]
20: Plant response rating, Wheat [4, 24] | Plant response rating, Ryegrass, Italian [16, 22]
0: Plant response rating, Ryegrass, Italian [7, 24] | Plant response rating, Ragweed [8, 24] | Plant response rating, Sedge, Umbrella ([11]; 500 g ai/ha)

CN1CC(c2ccc(F)c(F)c2)C(C(=O)Nc2ccccc2C(F)(F)F)C1=O (stereo not shown) [Compound 641]
20: Plant response rating, Kochia (Kochia (Kochia scoparia) [2]; [26]) | Plant response rating, Ragweed [8, 26] | Plant response rating, Pigweed [9, 26] | Plant response rating, Kochia (Kochia (Kochia scoparia) [14]; [22]) | Plant response rating, Ryegrass, Italian [16, 22] | Plant response rating, Pigweed [18, 22]
30: Plant response rating, Blackgrass [3, 24] | Plant response rating, Wheat [4, 26]
40: Plant response rating, Galium [6, 24] | Plant response rating, Ryegrass, Italian [7, 26]
25: Plant response rating, Pigweed ([1]; 62 g ai/ha)
0: Plant response rating (scale of 0 to 100), Pigweed [1] | Plant response rating, Kochia (Kochia (Kochia scoparia) [2]; [24]) | Plant response rating, Wheat [4, 24] | Plant response rating, Ryegrass, Italian [7, 24] | Plant response rating, Ragweed [8, 24] | Plant response rating, Corn (corn (Zea mays); [24]) | Plant response rating, Pigweed [9, 24] | Plant response rating, Rice (rice (Oryra sativa); 250 g ai/ha) | Plant response rating, Sedge, Umbrella ([11]; 250 g ai/ha) | Plant response rating, Barnyardgrass [15, 25] | Plant response rating, Ragweed [17, 22]
70: Plant response rating, Pigweed ([1]; 250 g ai/ha) | Plant response rating, Barnyardgrass ([12]; 250 g ai/ha)
90: Plant response rating, Barnyardgrass [5, 24] | Plant response rating, Barnyardgrass [5, 26] | Plant response rating, Foxtail, Giant [10, 24] | Plant response rating, Foxtail, Giant [10, 26] | Plant response rating, Barnyardgrass [15, 22] | Plant response rating, Foxtail, Giant [19, 22]
100: Plant response rating, Ducksalad ([13]; 250 g ai/ha) | Plant response rating, Foxtail, Giant [19, 25]
50: Plant response rating, Galium [6, 26] | Plant response rating, Corn (corn (Zea mays); [26]) | Plant response rating, Kochia (Kochia (Kochia scoparia) [14]; [25]) | Plant response rating, Pigweed [18, 25]
60: Plant response rating, Pigweed ([1]; 125 g ai/ha) | Plant response rating, Blackgrass [3, 26] | Plant response rating, Ryegrass, Italian [16, 25] | Plant response rating, Ragweed [17, 25]
